Results reported in patent US8669256B2, “Substituted thieno[2,3-b]pyrazine compounds as modulators of B-Raf kinase activity” (Merck Sharp & Dohme B.V., priority 2010, dated 2014).
Where two headings read alike, the source gives them in different places.

Legend:
[1] = tested on: phosphorylation of ERK1/2 in A375 cells containing mutant B-Raf (V600E); test: Phospho-ERK FACE assay in A375 (B-Raf mutated) melanoma cell line; assay type: cell-based; settings: Homo sapiens, A-375, A375 cells, 2 hours incubation, read-out: IC50, A375 melanoma phospho-ERK assay
Procedure, shortened: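 A375 cells (B-Raf V600E), serum-starved overnight in 0.1% FBS, exposed to compounds for 2 hours at 37° C (1% DMSO). Fixed cells probed with anti-phospho-ERK1/2 (Thr202/Tyr204, Thr185/Tyr187) antibody overnight at 4° C, total ERK on a separate plate. HRP-secondary chemiluminescence read-out.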

[2] = biological target: T1, GST-tagged human recombinant active B-Raf (Δ1-415) (Homo sapiens, UniProt P15056); test: B-Raf kinase activity, IMAP coupled assay (B-Raf/MEK1/ERK2, fluorescence polarization); assay type: biochemical; settings: bounds also given as pIC50 (>6, >7, >8); 60 min pre-incubation with compound, ATP 50 μM; read-out: IC50, B-Raf IMAP assay
T1 construct: GST; purchased Upstate/Millipore
Procedure, shortened: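 Coupled cascade: GST-B-Raf (Δ1-415; 0.2 U/ml) pre-incubated with compound (1% DMSO) 60 min at room temperature, then unactive MEK1 (64 ng/ml), unactive ERK2 (600 ng/ml), 50 nM fluorescein-Erktide and 50 μM ATP added for 60 min at 30 °C, pH 7.2 Tris buffer. Phosphopeptide captured on IMAP beads (60 min); fluorescence polarization read.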

[3] = class between 10 μM and 1 μM (5<pIC50<6)
[4] = between 1 μM and 100 nM (6<pIC50<7)
[5] = class given as below 100 nM (pIC50>7)

T1 sequence (P15056 416-766, stated change not applied): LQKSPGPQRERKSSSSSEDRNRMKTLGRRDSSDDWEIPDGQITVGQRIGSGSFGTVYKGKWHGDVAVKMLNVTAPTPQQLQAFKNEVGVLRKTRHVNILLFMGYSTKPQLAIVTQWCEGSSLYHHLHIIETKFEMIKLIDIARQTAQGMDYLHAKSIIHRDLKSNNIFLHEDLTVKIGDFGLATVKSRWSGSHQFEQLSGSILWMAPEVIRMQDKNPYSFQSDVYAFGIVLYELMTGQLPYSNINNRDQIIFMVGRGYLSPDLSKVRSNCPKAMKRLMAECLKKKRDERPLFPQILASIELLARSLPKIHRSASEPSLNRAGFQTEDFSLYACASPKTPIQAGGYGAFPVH

Structure (SMILES) | IC50 [1, 3] [nM] | IC50 [2] [nM] | IC50 [1, 4] [nM] | IC50 [1, 5] [nM]
Cc1ccc(NC(=O)c2cccc(C3(C#N)CCOCC3)c2)cc1NC(=O)c1cc2nccnc2s1 [Example 36, N-(5-(3-(4-cyanotetrahydro-2H-pyran-4-yl)benzamido)-2-methylphenyl)thieno[2,3-b]pyrazine-6-carboxamide] | 1000 to 10000 | < 100 |  | 
Cc1ccc(NC(=O)c2cccc(C(C)(C)C#N)c2)cc1NC(=O)c1cc2ncc(-c3cccnc3)nc2s1 [Example 68, N-(5-(3-(2-cyanopropan-2-yl)benzamido)-2-methylphenyl)-3-(pyridin-3-yl)thieno[2,3-b]pyrazine-6-carboxamide] |  | < 100 | 100 to 1000 | 
Cc1ccc(NC(=O)c2cccc(C(F)(F)F)c2)cc1NC(=O)c1sc2nccnc2c1N [Example 54, 7-amino-N-(2-methyl-5-(3-(trifluoromethyl)benzamido)phenyl)thieno[2,3-b]pyrazine-6-carboxamide] |  | < 10 |  | < 100
Cc1ccc(NC(=O)c2cccc(C(C)(C)C#N)c2)cc1NC(=O)c1sc2ncc(C#N)nc2c1N [Example 49, 7-amino-2-cyano-N-(5-(3-(2-cyanopropan-2-yl)benzamido)-2-methylphenyl)thieno[2,3-b]pyrazine-6-carboxamide] |  | < 100 | 100 to 1000 | 
CC(C)(C#N)c1cccc(C(=O)Nc2ccc(Br)c(NC(=O)c3cc4nccnc4s3)c2)c1 [Example 51, N-(2-bromo-5-(3-(2-cyanopropan-2-yl)benzamido)phenyl)thieno[2,3-b]pyrazine-6-carboxamide] |  | < 100 | 100 to 1000 | 
COCCNc1cnc2sc(C(=O)Nc3cc(NC(=O)c4cccc(C(C)(C)C#N)c4)ccc3C)c(N)c2n1 [Example 10, 7-amino-N-(5-(3-(2-cyanopropan-2-yl)benzamido)-2-methylphenyl)-2-(2-methoxyethylamino)thieno[2,3-b]pyrazine-6-carboxamide] |  | < 10 |  | < 100
Cc1ccc(NC(=O)c2cc(OC(F)(F)F)ccc2F)cc1NC(=O)c1cc2nccnc2s1 [Example 39, N-(5-(2-fluoro-5-(trifluoromethoxy)benzamido)-2-methylphenyl)thieno[2,3-b]pyrazine-6-carboxamide] | 1000 to 10000 | < 100 |  | 
Cc1ccc(NC(=O)c2cccc(C(C)(C)C#N)c2)cc1NC(=O)c1cc2nc(N(C)C)cnc2s1 [Example 15, N-(5-(3-(2-cyanopropan-2-yl)benzamido)-2-methylphenyl)-2-(dimethylamino)thieno[2,3-b]pyrazine-6-carboxamide] |  | < 10 |  | < 100
CNc1cnc2sc(C(=O)Nc3cc(NC(=O)c4cccc(C(C)(C)C#N)c4)ccc3C)cc2n1 [Example 17, N-(5-(3-(2-cyanopropan-2-yl)benzamido)-2-methylphenyl)-2-(methylamino)thieno[2,3-b]pyrazine-6-carboxamide] |  | < 100 | 100 to 1000 | 
Cc1ccc(NC(=O)c2cccc(C(C)(C)C#N)c2)cc1NC(=O)c1cc2nc(-c3ccncc3)cnc2s1 [Example 21, N-(5-(3-(2-cyanopropan-2-yl)benzamido)-2-methylphenyl)-2-(pyridin-4-yl)thieno[2,3-b]pyrazine-6-carboxamide] |  | < 100 |  | < 100
CCNc1cnc2sc(C(=O)Nc3cc(NC(=O)c4cccc(C(C)(C)C#N)c4)ccc3C)c(N)c2n1 [Example 7, 7-amino-N-(5-(3-(2-cyanopropan-2-yl)benzamido)-2-methylphenyl)-2-(ethylamino)thieno[2,3-b]pyrazine-6-carboxamide] |  | < 100 |  | < 100
Cc1ccc(NC(=O)c2cccc(C(C)(C)C#N)c2)cc1NC(=O)c1sc2ncc(NCCN(C)C)nc2c1N [Example 5, 7-amino-N-(5-(3-(2-cyanopropan-2-yl)benzamido)-2-methylphenyl)-2-(2-(dimethylamino)ethylamino)thieno[2,3-b]pyrazine-6-carboxamide] |  | < 10 | 100 to 1000 | 
C=Cc1c(C(=O)Nc2cc(NC(=O)c3cccc(C(C)(C)C#N)c3)ccc2C)sc2nccnc12 [Example 44, N-(5-(3-(2-cyanopropan-2-yl)benzamido)-2-methylphenyl)-7-vinylthieno[2,3-b]pyrazine-6-carboxamide] |  | < 10 | 100 to 1000 | 
Cc1ccc(NC(=O)c2cccc(C(C)(C)C#N)c2)cc1NC(=O)c1cc2nc(-c3cccnc3)cnc2s1 [Example 20, N-(5-(3-(2-cyanopropan-2-yl)benzamido)-2-methylphenyl)-2-(pyridin-3-yl)thieno[2,3-b]pyrazine-6-carboxamide] |  | < 10 |  | < 100
Cc1ccc(NC(=O)c2cccc(C(C)(C)C#N)c2)cc1NC(=O)c1sc2nccnc2c1C [Example 42, N-(5-(3-(2-cyanopropan-2-yl)benzamido)-2-methylphenyl)-7-methylthieno[2,3-b]pyrazine-6-carboxamide] |  | < 10 | 100 to 1000 | 
Cc1ccc(NC(=O)c2ccnc(N3CCCC3)c2)cc1NC(=O)c1cc2nccnc2s1 [Example 26, N-(2-methyl-5-(2-(pyrrolidin-1-yl)isonicotinamido)phenyl)thieno[2,3-b]pyrazine-6-carboxamide] | 1000 to 10000 | < 100 |  | 
Cc1ccc(NC(=O)c2cccc(C(C)(C)C#N)c2)cc1NC(=O)c1cc2ncc(NCCN(C)C)nc2s1 [Example 61, N-(5-(3-(2-cyanopropan-2-yl)benzamido)-2-methylphenyl)-3-(2-(dimethylamino)ethylamino)thieno[2,3-b]pyrazine-6-carboxamide] |  | < 10 | 100 to 1000 | 
Cc1ccc(NC(=O)c2cccc(C(C)(C)C#N)c2)cc1NC(=O)c1sc2ncc(-c3ccco3)nc2c1N [Example 50, 7-amino-N-(5-(3-(2-cyanopropan-2-yl)benzamido)-2-methylphenyl)-2-(furan-2-yl)thieno[2,3-b]pyrazine-6-carboxamide] |  | < 100 |  | < 100
Cc1cnc2cc(C(=O)Nc3cc(NC(=O)c4cccc(C(C)(C)C#N)c4)ccc3C)sc2n1 [Example 70, N-(5-(3-(2-cyanopropan-2-yl)benzamido)-2-methylphenyl)-3-methylthieno[2,3-b]pyrazine-6-carboxamide] |  | < 100 | 100 to 1000 | 
CCNc1cnc2cc(C(=O)Nc3cc(NC(=O)c4cccc(C(C)(C)C#N)c4)ccc3C)sc2n1 [Example 67, N-(5-(3-(2-cyanopropan-2-yl)benzamido)-2-methylphenyl)-3-(ethylamino)thieno[2,3-b]pyrazine-6-carboxamide] |  | < 100 | 100 to 1000 | 
Cc1ccc(NC(=O)c2cccc(C(C)(C)C#N)c2)cc1NC(=O)c1sc2ncc(N3CCN(C)CC3)nc2c1N [Example 8, 7-amino-N-(5-(3-(2-cyanopropan-2-yl)benzamido)-2-methylphenyl)-2-(4-methylpiperazin-1-yl)thieno[2,3-b]pyrazine-6-carboxamide] |  | < 10 | 100 to 1000 | 
